Read-outs that look alike come from different tables or passages of the source.
Experiments:
[1] = target: T1, Class B β-lactamase (B. cereus enzyme) (Bacillus cereus, UniProt P04190); assay: Ki determination, initial rate of hydrolysis of reporter substrate cephalosporin C; format: biochemical
T1 construct: from a range of bacteria, including: Xanthomonas maltophilia, Bacillus cereus; endogenous in cells; host or cells: Bacillus cereus (enzyme purified from the bacterium)
Experimental: (§1) Class B β-lactamases were purified according to published^4 or standard procedures from a range of bacteria, including: Xanthomonas maltophilia, Bacillus cereus, Pseudomonas aeruginosa and Aeromonas hydrophila.
(§2) Assays for inhibition were also carried out according to published procedures^4. Kinetic experiments were typically carried out at 30° C. with 30 mM sodium cacodylate buffer, pH 6.5, containing 0.1 mM ZnCl2.
(§3) The Ki (inhibition constant) values were determined by analysing the initial rate of hydrolysis at different inhibitor concentrations using the following reporter substrates: 30 μm nitrocefin (X. maltophilia enzyme), 200 μM imipenem (A. hydrophila), or 1 mM cephalosporin C (B. cereus and P. aeruginosa enzymes). Data analysis was carried out according to standard kinetic procedures [Felici, A. et al., Biochem. J., 291, 151-155 (1993) and references therein].

[2] = target: T2, Class B β-lactamase (X. maltophilia enzyme) (Stenotrophomonas maltophilia, UniProt P52700); assay: Ki determination, initial rate of hydrolysis of reporter substrate nitrocefin; format: biochemical, Xanthomonas maltophilia
T2 construct: standard procedures from a range of bacteria, including: Xanthomonas maltophilia; endogenous in cells; host or cells: Xanthomonas maltophilia (enzyme purified from the bacterium)
T2 sequence (P52700 34-290): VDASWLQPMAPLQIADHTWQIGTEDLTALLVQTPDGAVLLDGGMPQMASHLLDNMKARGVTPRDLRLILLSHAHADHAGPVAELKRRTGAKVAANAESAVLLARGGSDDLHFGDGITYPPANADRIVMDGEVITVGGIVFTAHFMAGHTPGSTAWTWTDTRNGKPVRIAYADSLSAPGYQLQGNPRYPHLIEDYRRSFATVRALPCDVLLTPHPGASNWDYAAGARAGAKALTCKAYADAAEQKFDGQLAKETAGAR
Experimental: as §1, §2, §3

[3] = target: T3, Class B β-lactamase (P. aeruginosa enzyme) (Pseudomonas aeruginosa, UniProt Q79MP6); assay: Ki determination, initial rate of hydrolysis of reporter substrate cephalosporin C; format: biochemical; settings: competitive inhibition; 1 mM cephalosporin C; 30° C., pH 6.5, 0.1 mM ZnCl2; read-out: Ki (inhibition constant)
T3 construct: Bacillus cereus, Pseudomonas aeruginosa and Aeromonas hydrophila; endogenous in cells; host or cells: Pseudomonas aeruginosa (enzyme purified from the bacterium)
T3 sequence (Q79MP6 19-246 limits assumed): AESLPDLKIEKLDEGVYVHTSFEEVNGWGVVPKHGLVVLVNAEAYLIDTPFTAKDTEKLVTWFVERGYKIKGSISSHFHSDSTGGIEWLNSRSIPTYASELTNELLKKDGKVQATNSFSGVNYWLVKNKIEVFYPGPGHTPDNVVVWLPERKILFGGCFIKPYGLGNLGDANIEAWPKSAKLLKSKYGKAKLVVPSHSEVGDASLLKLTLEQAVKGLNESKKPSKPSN
Experimental: as §1, §2, §3

[4] = target: T4, Class B β-lactamase (A. hydrophila enzyme) (Aeromonas hydrophila, UniProt P26918); assay: Inhibition/inactivation kinetics, reporter substrate imipenem; format: biochemical; settings: for mode of inhibition of the A. hydrophila enzyme: further kinetic analyses, no reactivation was observed; for Ki: inactivation kinetics, 200 μM imipenem, 30° C., pH 6.5, 0.1 mM ZnCl2, read-out: K = apparent binding constant between the enzyme and substrate
T4 construct: Bacillus cereus, Pseudomonas aeruginosa and Aeromonas hydrophila; endogenous in cells; host or cells: Aeromonas hydrophila (enzyme purified from the bacterium)
T4 sequence (P26918 28-254): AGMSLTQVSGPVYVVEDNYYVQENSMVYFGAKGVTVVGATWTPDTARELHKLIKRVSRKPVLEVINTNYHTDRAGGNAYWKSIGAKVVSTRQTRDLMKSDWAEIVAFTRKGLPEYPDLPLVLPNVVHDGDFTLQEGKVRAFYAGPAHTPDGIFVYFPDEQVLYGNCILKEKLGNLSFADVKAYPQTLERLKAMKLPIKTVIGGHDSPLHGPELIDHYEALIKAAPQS
Experimental: as §1, §2, §3
Compounds 3, 4, 5, 6, 7 and 9 were also shown to be inhibitors of the A. hydrophila enzyme. […] The following kinetic parameters were obtained, where K=apparent binding constant between the enzyme and substrate and k+2 =apparent rate constant for inactivation as in the following scheme: [formula] Kinetic data for compound 3: K=6 μM, k+2 =4.3×10^-2 s^-1

[5] = competitive inhibition, 1 mM cephalosporin C, 30° C., pH 6.5, 0.1 mM ZnCl2, read-out: Ki (inhibition constant)
[6] = read-out: Ki (inhibition constant), competitive inhibition, 1 mM cephalosporin C, 30° C., pH 6.5, 0.1 mM ZnCl2

T1 sequence (P04190 31-257): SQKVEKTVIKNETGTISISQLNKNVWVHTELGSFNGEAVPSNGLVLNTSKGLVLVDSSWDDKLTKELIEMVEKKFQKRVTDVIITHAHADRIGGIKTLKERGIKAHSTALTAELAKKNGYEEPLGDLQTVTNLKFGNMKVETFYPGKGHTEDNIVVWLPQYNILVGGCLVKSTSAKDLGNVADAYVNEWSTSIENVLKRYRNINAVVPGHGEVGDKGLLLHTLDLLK

Structure (SMILES)	Ki [1, 5] [µM]	Ki [2] [µM]	Ki [1] [µM]	Ki [3] [µM]	mode of inhibition of the A. hydrophila enzyme [4]	Ki [4] [µM]	Ki [1, 6] [µM]	Ki ([2]; read-out: Ki (inhibition constant), competitive inhibition, 30 μm nitrocefin, 30° C., 30 mM sodium cacodylate pH 6.5, 0.1 mM ZnCl2) [µM]
O=C(CC(=O)C(F)(F)F)c1ccccc1 [Compound 1, reference compound]	300							
O=C(COc1ccccc1)N[C@H](Cc1ccccc1)C(=O)C(F)(F)F [Compound 2]	1000							
O=C(COc1ccccc1)N[C@@H](Cc1ccccc1)C(=O)C(F)(F)F [Compound 3]		15	500	530	inactivators	6		
O=C(COc1ccccc1)N[C@@H](Cc1ccccc1)[C@H](O)C(F)(F)F [Compound 4]				900	inactivators	19	1000	
O=C(COc1ccccc1)N[C@H](Cc1ccccc1)[C@H](O)C(F)(F)F [Compound 5]				60	inactivators	20	30	
C[C@H](NC(=O)COc1ccccc1)C(=O)C(F)(F)F [Compound 6]		1.5	30	300	inactivators	44		
C[C@@H](NC(=O)COc1ccccc1)C(=O)C(F)(F)F [Compound 7]		3	700	500	inactivators	11		
C[C@H](NC(=O)COc1ccccc1)[C@H](O)C(F)(F)F [Compound 8]				400			300	
C[C@@H](NC(=O)COc1ccccc1)[C@H](O)C(F)(F)F [Compound 9]				400	inactivators	217	700	35

— patent US6043278A, “Perfluoralkyl substituted metallo-beta-lactamase inhibitors” (Isis Innovation Limited, priority 1995, dated 2000)
